Results: patent US9862717B2 (Merck Patent GmbH, priority 2014, dated 2018)

These compounds were tested against T1, CDK8/CycC (Homo sapiens, UniProt P49336) (assay: FRET based Lanthascreen binding competition assay for CDK8 inhibitory activity). Details: CDK8 co-expressed with CycC; class symbols; read-out: IC50.
T1 construct: purchased Invitrogen PV4402
T1 sequence (P49336 whole entry): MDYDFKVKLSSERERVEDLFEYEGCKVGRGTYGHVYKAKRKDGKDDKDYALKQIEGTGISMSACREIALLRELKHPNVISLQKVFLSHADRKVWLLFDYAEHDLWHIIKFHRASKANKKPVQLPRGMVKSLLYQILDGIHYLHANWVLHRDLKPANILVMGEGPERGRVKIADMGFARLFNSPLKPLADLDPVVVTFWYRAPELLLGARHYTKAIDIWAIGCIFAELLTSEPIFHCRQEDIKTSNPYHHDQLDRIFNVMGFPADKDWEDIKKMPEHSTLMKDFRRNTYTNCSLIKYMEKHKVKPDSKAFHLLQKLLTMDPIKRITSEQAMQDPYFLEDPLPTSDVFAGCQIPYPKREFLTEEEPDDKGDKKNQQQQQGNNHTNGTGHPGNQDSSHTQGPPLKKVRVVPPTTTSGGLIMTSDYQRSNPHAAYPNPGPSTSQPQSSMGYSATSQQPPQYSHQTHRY
T1 sequence (P24863 whole entry partner): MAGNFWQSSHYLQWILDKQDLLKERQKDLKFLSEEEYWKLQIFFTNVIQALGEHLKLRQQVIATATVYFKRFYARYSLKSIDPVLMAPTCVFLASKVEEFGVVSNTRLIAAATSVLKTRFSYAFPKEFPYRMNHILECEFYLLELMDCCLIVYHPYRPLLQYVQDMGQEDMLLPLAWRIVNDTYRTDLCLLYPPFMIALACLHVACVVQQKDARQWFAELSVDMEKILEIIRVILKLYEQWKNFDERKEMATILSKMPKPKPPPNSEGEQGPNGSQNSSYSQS
In short: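 Competition binding of a dye-labeled ATP-competitive Alexa647 probe to CDK8 co-expressed with CycC, Eu-labeled via biotinylated anti-His antibody/streptavidin.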
Compound `Cc1n[nH]c2ncc(C(=O)N3CCNC(=O)[C@H]3c3ccc(F)cc3)cc12` [compound 215, (R)-3-(4-Fluoro-phenyl)-4-(3-methyl-1H-pyrazolo[3,4-b]pyridine-5-carbonyl)-piperazin-2-one] has an IC50 of 1000 to 10000 nM. Work on `O=C(c1ccc2[nH]nc(F)c2c1)N1CCC[C@H]1c1ccc(Cl)cc1` [compound 216, [(S)-2-(4-Chloro-phenyl)-pyrrolidin-1-yl]-(3-fluoro-1H-indazol-5-yl)-methanone] yielded an IC50 of less than 10 nM. Work on `O=C(c1ccc2[nH]nc(Cl)c2c1)N1CCC[C@H]1c1ccc(Cl)cc1` [compound 217, (3-Chloro-1H-indazol-5-yl)-[(S)-2-(4-chloro-phenyl)-pyrrolidin-1-yl]-methanone] yielded an IC50 of 10 to 100 nM. For `O=C(c1ccc2[nH]nc(Cl)c2c1)N1CCC(c2ccc(Cl)cc2)C1` (stereo not drawn) [compound 218, (3-Chloro-1H-indazol-5-yl)-[3-(4-chloro-phenyl)-pyrrolidin-1-yl]-methanone], the IC50 was 10 to 100 nM. `O=C(c1ccc2[nH]nc(Cl)c2c1)N1CCCC1c1ccc(C(F)(F)F)cc1` (stereo not drawn) [compound 219, (3-Chloro-1H-indazol-5-yl)-[2-(4-trifluoromethyl-phenyl)-pyrrolidin-1-yl]-methanone] showed an IC50 of 10 to 100 nM. Work on `CS(=O)(=O)c1n[nH]c2ccc(C(=O)N3CCC[C@H]3c3ccc(Cl)cc3)cc12` [compound 220, [(S)-2-(4-Chloro-phenyl)-pyrrolidin-1-yl]-(3-methanesulfonyl-1H-indazol-5-yl)-methanone] yielded an IC50 of 10 to 100 nM. With `COc1ccc([C@@H]2CCCN2C(=O)c2cnc3[nH]nc(C)c3c2)cc1` [compound 221, [(S)-2-(4-Methoxy-phenyl)-pyrrolidin-1-yl]-(3-methyl-1H-pyrazolo[3,4-b]pyridin-5-yl)-methanone] the IC50 was less than 10 nM. `COc1cccc([C@@H]2CCCN2C(=O)c2cnc3[nH]nc(C)c3c2)c1` [compound 222, [(S)-2-(3-Methoxy-phenyl)-pyrrolidin-1-yl]-(3-methyl-1H-pyrazolo[3,4-b]pyridin-5-yl)-methanone] was tested, and the IC50 was 100 to 1000 nM. Compound `COc1ccc([C@H]2CCCN2C(=O)c2cnc3[nH]nc(C)c3c2)cc1` [compound 223, [(R)-2-(4-Methoxy-phenyl)-pyrrolidin-1-yl]-(3-methyl-1H-pyrazolo[3,4-b]pyridin-5-yl)-methanone] has an IC50 of 1000 to 10000 nM. `COc1cccc([C@H]2CCCN2C(=O)c2cnc3[nH]nc(C)c3c2)c1` [compound 224, [(R)-2-(3-Methoxy-phenyl)-pyrrolidin-1-yl]-(3-methyl-1H-pyrazolo[3,4-b]pyridin-5-yl)-methanone] was tested, and the IC50 was 1000 to 10000 nM. With `Cc1n[nH]c2ncc(C(=O)N3CCC[C@H]3c3ccc(Cl)cc3F)cc12` [compound 225, [(S)-2-(4-Chloro-2-fluoro-phenyl)-pyrrolidin-1 yl]-(3-methyl-1H-pyrazolo[3,4-b]pyridin-5-yl)-methanone] the IC50 was less than 10 nM. For `Cc1n[nH]c2ncc(C(=O)N3CCC[C@@H]3c3ccc(Cl)cc3F)cc12` [compound 226, [(R)-2-(4-Chloro-2-fluoro-phenyl)-pyrrolidin-1-yl]-(3-methyl-1H-pyrazolo[3,4-b]pyridin-5-yl)-methanone], the IC50 was 1000 to 10000 nM. `Cc1n[nH]c2ncc(C(=O)N3CCC[C@H]3c3ccc(Cl)c(F)c3)cc12` [compound 227, [(S)-2-(4-Chloro-3-fluoro-phenyl)-pyrrolidin-1-yl]-(3-methyl-1H-pyrazolo[3,4-b]pyridin-5-yl)-methanone] gave an IC50 of less than 10 nM. With `Cc1n[nH]c2ncc(C(=O)N3CCC[C@@H]3c3ccc(Cl)c(F)c3)cc12` [compound 228, [(R)-2-(4-Chloro-3-fluoro-phenyl)-pyrrolidin-1-yl]-(3-methyl-1H-pyrazolo[3,4-b]pyridin-5-yl)-methanone] the IC50 was 1000 to 10000 nM. Work on `Cc1n[nH]c2ncc(C(=O)N3CCC[C@@H]3c3ccc4cn[nH]c4c3)cc12` [compound 229, [(R)-2-(1H-Indazol-6-yl)-pyrrolidin-1-yl]-(3-methyl-1H-pyrazolo[3,4-b]pyridin-5-yl)-methanone] yielded an IC50 of 1000 to 10000 nM.
